Here are results for 18 molecules from US9956293B2, “Targeted therapeutics” (Madrigal Pharmaceuticals, Inc., priority 2014, dated 2018).

In the assay the test system is HER2. As to the kind of experiment: HER2 degradation assay with BT-474 cell line (Example 12, FACS). Conditions: Homo sapiens. Format: cell-based. From the text:
HER2 Degradation Assay with BT-474 Cell Line
HER2 has emerged as a key target for anticancer drugs due to its intrinsic involvement in the phosphatidylinositol-3-kinase-Akt/protein kinase B (PI3K-Akt) and the mitogen-activated protein kinase (MAPK) pathways, both of which suppress apoptosis and promote tumor cell survival, gene transcription, angiogenesis, cellular proliferation, migration, mitosis, and differentiation. The degradation of HER2 is a measure of efficacy of anticancer therapeutics that target Hsp90. Accordingly, the SDC-TRAP molecules of the invention that comprise a binding moiety that binds Hsp90 were tested in the following HER2 degradation assay.
BT-474 cells (human breast cancer cell line ATCC HTB-20) were obtained from ATCC and seeded into 12-well tissue culture plates at 0.2×10^6/1.8 mL/well. […] Each test compound was titrated in 4-fold dilutions from 5 μM to 78 nM with DMSO and 200 μL of the titration was added to each well of the cell plate. The DMSO final concentration was 0.2%. Cells were incubated overnight at 37° C. in 5% CO2.
Media was decanted from the plate, cells were washed 1× in PBS. 400 μL trypsin (EDTA) per well was added, and the cells were incubated for 2 to 3 minutes. Cells were collected into FACS tubes containing 1 ml culture medium to neutralize the trypsin and were centrifuged for 5 minutes at 1200 rpm. Supernatant was decanted and the cells were resuspended in 5 μL FITC (anti HER2/nu)/200 μL staining buffer (1×PBS+1% FBS+0.05% Sodium Azide)/tube. Controls were […] IgG isotype control and staining buffer only. Tubes were incubated for 30 minutes in the dark at room temperature. 1 mL staining buffer was added to each tube and the tubes were centrifuged for 6 minutes at 1200 rpm. The supernatant was decanted and 300 μL staining buffer was added to each tube, which was store at 4° C. for FACS (cytometer) analysis. The cytometer readout was normalized and the potency of each compound is evaluated with IC50 calculated with XLfit™ software.

Molecules are shown by their SMILES. Bounds are passed on as bounds.

On to `CC(C)c1cc(-c2nnc(O)n2-c2ccc(CN3CCN(C(=O)CCn4cc(F)c(=O)[nH]c4=O)CC3)cc2)c(O)cc1O` [SDC-TRAP-0049, 1-(3-(4-(4-(3-(2,4-dihydroxy-5-isopropylphenyl)-5-hydroxy-4H-1,2,4-triazol-4-yl)benzyl)piperazin-1-yl)-3-oxopropyl)-5-fluoropyrimidine-2,4(1H,3H)-dione], for which the IC50 (BT-474 cells) was more than 5 µM.

In turn, `CC(C)c1cc(-c2nnc(O)n2-c2ccc(CN3CCN(C(=O)c4cnc(C(=O)Nc5cccc6c5CN(C5CCC(=O)NC5=O)C6=O)cn4)CC3)c(F)c2)c(O)cc1O` (stereo not drawn) [SDC-TRAP-0160, 5-(4-(4-(3-(2,4-dihydroxy-5-isopropylphenyl)-5-hydroxy-4H-1,2,4-triazol-4-yl)-2-fluorobenzyl)piperazine-1-carbonyl)-N-(2-(2,6-dioxopiperidin-3-yl)-1-oxoisoindolin-4-yl)pyrazine-2-carboxamide] registered a half-maximal inhibitory concentration (IC50) (BT-474 cells) of 0.239 µM.

`CCNC(=O)c1nnc(-c2cc(C(C)C)c(O)cc2O)n1-c1ccc(C(=O)N(C)CCOC(=O)Nc2cccc3c2CN(C2CCC(=O)NC2=O)C3=O)cc1` (stereo not drawn) [SDC-TRAP-0133, 2-(4-(3-(2,4-dihydroxy-5-isopropylphenyl)-5-(ethylcarbamoyl)-4H-1,2,4-triazol-4-yl)-N-methylbenzamido)ethyl(2-(2,6-dioxopiperidin-3-yl)-1-oxoisoindolin-4-yl)carbamate]: where the note is “BT-474 cells”, the half-maximal inhibitory concentration (IC50) is more than 10 µM.

`CC(C)c1cc(-c2nnc(O)n2-c2ccc3c(c2)nc(C2CCN(C(=O)c4ccc(CCc5c[nH]c6nc(N)[nH]c(=O)c56)cc4)CC2)n3C)c(O)cc1O` [SDC-TRAP-0102, 2-amino-5-(4-(4-(5-(3-(2,4-dihydroxy-5-isopropylphenyl)-5-hydroxy-4H-1,2,4-triazol-4-yl)-1-methyl-1H-benzo[d]imidazol-2-yl)piperidine-1-carbonyl)phenethyl)-3H-pyrrolo[2,3-d]pyrimidin-4(7H)-one]: where the note is “BT-474, SDC-TRAPs of the 41st table”, the IC50 is more than 5 µM.

Take `CC(C)c1cc(-c2nnc(O)n2-c2ccc(CC(=O)N(C)CCCOC(=O)Nc3cccc4c3CN(C3CCC(=O)NC3=O)C4=O)cc2)c(O)cc1O` (stereo not drawn) [SDC-TRAP-0132, 3-(2-(4-(3-(2,4-dihydroxy-5-isopropylphenyl)-5-hydroxy-4H-1,2,4-triazol-4-yl)phenyl)-N-methylacetamido)propyl(2-(2,6-dioxopiperidin-3-yl)-1-oxoisoindolin-4-yl)carbamate]: for the setting “BT-474 cells”, the IC50 is more than 5 µM.

Molecule `CCNC(=O)c1nnc(-c2cc(C(C)C)c(O)cc2O)n1-c1ccc(C(=O)N2CCN(C(=O)c3ccc(COC(=O)Nc4cccc5c4CN(C4CCC(=O)NC4=O)C5=O)cc3)CC2)cc1` (stereo not drawn) [SDC-TRAP-0177, 4-(4-(4-(3-(2,4-dihydroxy-5-isopropylphenyl)-5-(ethylcarbamoyl)-4H-1,2,4-triazol-4-yl)benzoyl)piperazine-1-carbonyl)benzyl (2-(2,6-dioxopiperidin-3-yl)-1-oxoisoindolin-4-yl)carbamate] displayed an IC50 (BT-474 cells) of 4.35 µM.

In the case of `CCNC(=O)c1nnc(-c2cc(C(C)C)c(O)cc2O)n1-c1ccc(CN2CCC(C(=O)N3CCC[C@H]3C(=O)Nc3cccc4c3CN(C3CCC(=O)NC3=O)C4=O)CC2)cc1` (stereo partly drawn) [SDC-TRAP-0164, 5-(2,4-dihydroxy-5-isopropylphenyl)-4-(4-((4-((2S)-2-((2-(2,6-dioxopiperidin-3-yl)-1-oxoisoindolin-4-yl)carbamoyl)pyrrolidine-1-carbonyl)piperidin-1-yl)methyl)phenyl)-N-ethyl-4H-1,2,4-triazole-3-carboxamide], the concentration for half-maximal inhibition (IC50) (BT-474 cells) is 0.493 µM.

For `CC(C)c1cc(-c2nnc(O)n2-c2ccc3c(ccn3CCNC(=O)Cn3cc(F)c(=O)[nH]c3=O)c2)c(O)cc1O` [SDC-TRAP-0013, N-(2-(5-(3-(2,4-dihydroxy-5-isopropylphenyl)-5-hydroxy-4H-1,2,4-triazol-4-yl)-1H-indol-1-yl)ethyl)-2-(5-fluoro-2,4-dioxo-3,4-dihydropyrimidin-1(2H)-yl) acetamide], the IC50 (BT-474 cells) is more than 5 µM.

Molecule `CC(C)c1cc(-c2nnc(O)n2-c2ccc(CC3CCN(C(=O)COC(=O)Nc4cccc5c4CN(C4CCC(=O)NC4=O)C5=O)CC3)cc2)c(O)cc1O` (stereo not drawn) [SDC-TRAP-0131, 2-(4-(4-(3-(2,4-dihydroxy-5-isopropylphenyl)-5-hydroxy-4H-1,2,4-triazol-4-yl)benzyl)piperidin-1-yl)-2-oxoethyl(2-(2,6-dioxopiperidin-3-yl)-1-oxoisoindolin-4-yl)carbamate] gave an IC50 (BT-474 cells) of more than 5 µM.

As for `CCNC(=O)c1nnc(-c2cc(C(C)C)c(O)cc2O)n1-c1ccc(CN2CCC(C(=O)N[C@@H](CC(C)C)C(=O)Nc3cccc4c3CN(C3CCC(=O)NC3=O)C4=O)CC2)cc1` (stereo partly drawn) [SDC-TRAP-0193, 1-(4-(3-(2,4-dihydroxy-5-isopropylphenyl)-5-(ethylcarbamoyl)-4H-1,2,4-triazol-4-yl)benzyl)-N-((2S)-1-((2-(2,6-dioxopiperidin-3-yl)-1-oxoisoindolin-4-yl)amino)-4-methyl-1-oxopentan-2-yl)piperidine-4-carboxamide], the midpoint of inhibition (BT-474 cells), the IC50, lay at 0.266 µM.

Turning to `CC(C)c1cc(-c2nnc(O)n2-c2ccc3c(ccn3CCC3CCN(CC(=O)Nc4cccc5c4CN(C4CCC(=O)NC4=O)C5=O)CC3)c2)c(O)cc1O` (stereo not drawn) [SDC-TRAP-0129, 2-(4-(2-(5-(3-(2,4-dihydroxy-5-isopropylphenyl)-5-hydroxy-4H-1,2,4-triazol-4-yl)-1H-indol-1-yl)ethyl)piperidin-1-yl)-N-(2-(2,6-dioxopiperidin-3-yl)-1-oxoisoindolin-4-yl)acetamide], the midpoint of inhibition (BT-474 cells), the IC50, lay at 4.52 µM.

Turning to `CC(C)c1cc(-c2nnc(O)n2-c2ccc(CN3CCN(C(=O)Cc4ccc(COC(=O)Nc5cccc6c5CN(C5CCC(=O)NC5=O)C6=O)cc4)CC3)c(F)c2)c(O)cc1O` (stereo not drawn) [SDC-TRAP-0194, 4-(2-(4-(4-(3-(2,4-dihydroxy-5-isopropylphenyl)-5-hydroxy-4H-1,2,4-triazol-4-yl)-2-fluorobenzyl)piperazin-1-yl)-2-oxoethyl)benzyl (2-(2,6-dioxopiperidin-3-yl)-1-oxoisoindolin-4-yl)carbamate], the IC50 (BT-474 cells) was 2.12 µM.

For `CCc1c2c(nc3ccc(OCCn4ccc5cc(-n6c(O)nnc6-c6cc(C(C)C)c(O)cc6O)ccc54)cc13)-c1cc3c(c(=O)n1C2)COC(=O)C3(O)CC` (stereo not drawn) [SDC-TRAP-0058, 9-(2-(5-(3-(2,4-dihydroxy-5-isopropylphenyl)-5-hydroxy-4H-1,2,4-triazol-4-yl)-1H-indol-1-yl)ethoxy)-4,11-diethyl-4-hydroxy-1H-pyrano[3′,4′:6,7]indolizino[1,2-b]quinoline-3,14(4H,12H)-dione], under “BT-474, SDC-TRAPs of the 43rd table”, the IC50 stood at 2.93 µM.

In turn, `CCNC(=O)c1nnc(-c2cc(C(C)C)c(O)cc2O)n1-c1ccc(C(=O)N2CCC(COC(=O)Nc3cccc4c3CN(C3CCC(=O)NC3=O)C4=O)CC2)cc1` (stereo not drawn) [SDC-TRAP-0136, (1-(4-(3-(2,4-dihydroxy-5-isopropylphenyl)-5-(ethylcarbamoyl)-4H-1,2,4-triazol-4-yl)benzoyl)piperidin-4-yl)methyl (2-(2,6-dioxopiperidin-3-yl)-1-oxoisoindolin-4-yl)carbamate] came in with an IC50 (BT-474 cells) of more than 5 µM.

For the molecule `CC(C)c1cc(-c2nnc(O)n2-c2ccc(CN3CCN(C(=O)COC(=O)Nc4cccc5c4CN(C4CCC(=O)NC4=O)C5=O)CC3)cc2)c(O)cc1O` (stereo not drawn) [SDC-TRAP-0121, 2-(4-(4-(3-(2,4-dihydroxy-5-isopropylphenyl)-5-hydroxy-4H-1,2,4-triazol-4-yl)benzyl)piperazin-1-yl)-2-oxoethyl(2-(2,6-dioxopiperidin-3-yl)-1-oxoisoindolin-4-yl)carbamate], for the setting “BT-474 cells”, the midpoint of inhibition, the IC50, lay at 3 µM.

As to `CC(C)c1cc(-c2nnc(O)n2-c2ccc3c(c2)cc(CN2CCC(COC(=O)Nc4cccc5c4CN(C4CCC(=O)NC4=O)C5=O)CC2)n3C)c(O)cc1O` (stereo not drawn) [SDC-TRAP-0155, (1-((5-(3-(2,4-dihydroxy-5-isopropylphenyl)-5-hydroxy-4H-1,2,4-triazol-4-yl)-1-methyl-1H-indol-2-yl)methyl)piperidin-4-yl)methyl (2-(2,6-dioxopiperidin-3-yl)-1-oxoisoindolin-4-yl)carbamate], 1.19 µM corresponded to half-maximal inhibition (BT-474 cells) (IC50).

Turning to `CC(C)c1cc(-c2nnc(O)n2-c2ccc3c(ccn3CCC3CCN(C(=O)ONC(=O)CCCCCCC(=O)Nc4ccccc4)CC3)c2)c(O)cc1O` [SDC-TRAP-0118, N1-((4-(2-(5-(3-(2,4-dihydroxy-5-isopropylphenyl)-5-hydroxy-4H-1,2,4-triazol-4-yl)-1H-indol-1-yl)ethyl)piperidine-1-carbonyl)oxy)-N8-phenyloctanediamide], the half-inhibitory concentration (IC50) (BT-474 cells) turned out to be 2.35 µM.

With `CCNC(=O)c1nnc(-c2cc(C(C)C)c(O)cc2O)n1-c1ccc(Oc2ccc(C(=O)N3CCC(COC(=O)Nc4cccc5c4CN(C4CCC(=O)NC4=O)C5=O)CC3)cc2)cc1` (stereo not drawn) [SDC-TRAP-0125, (1-(4-(4-(3-(2,4-Dihydroxy-5-isopropylphenyl)-5-(ethylcarbamoyl)-4H-1,2,4-triazol-4-yl)phenoxy)benzoyl)piperidin-4-yl)methyl (2-(2,6-dioxopiperidin-3-yl)-1-oxoisoindolin-4-yl)carbamate], it took 0.312 µM to reach half-maximal inhibition (BT-474 cells) (IC50). Against the preceding molecule, the IC50 is about 7.5-fold lower.

For orientation: IC50 means the point on the concentration scale where inhibition reaches its midpoint. A low value points to inhibition by little substance.
